Source: patent US12497610B2, “Functional genomics using CRISPR-CAS systems for saturating mutagenesis of non-coding elements, compositions, methods, libraries and applications thereof” (THE BROAD INSTITUTE, INC., priority 2015, dated 2025)

Experiments:
[1] = system: CUL3; assay: ddPCR quantification of CUL3 expression in A375 cells transduced with individual sgRNAs; type: cell-based, human; conditions: A375, relative to non-targeting sgRNAs; result in words
Description: Array Validation of Primary Screen Hits
For individual (array) validation of noncoding sgRNAs, Applicants first identified sgRNAs enriched in the top 5% of the library as given by the normalized log 2(Vemu/DMSO) read ratio. In order to have high confidence in these sgRNAs, Applicants used the minimum of the two infection replicates for the normalized log2 (Vemu/DMSO) read ratio. […] This ensures that putative noncoding functional elements were supported by the presence of at least 2 enriched sgRNAs. From this group, Applicants picked 25 sgRNAs distributed across different genomic regions for individual validation (see table S2 for a list of sgRNA sequences). Applicants also included 3 exon-targeting and 3 non-targeting sgRNAs to serve as positive and negative controls, respectively.
For each sgRNA, standard desalted short oligonucleotides (Integrated DNA Technologies) were annealed, phosphorylated and cloned into a lentiviral vector (lentiCRISPRv2, Addgene 52961) that contained Cas9 and an sgRNA cassette. For each sgRNA, A375 cells were transduced with lentiviral supernatants. After 24 hours, media was replaced with R10 with 1 ug/mL of puromycin. Viral volumes were titered such that 20-40% of cells survived after puromycin selection. After selection and expansion for 7 days in puromycin, cell were plated for DNA/RNA extraction, vemurafenib resistance, or ChIP assays.
RNA Extraction and ddPCR Quantification of CUL3 Expression
After 7 days of puromycin selection, A375 cells transduced with individual lentiCRISPRv2 sgRNAs were plated in 3 replicate wells (2×10^3 cells/well) in 96-well plates. After 4 days (70-90% confluent), RNA was extracted using a homemade version of a rapid lysis kit for quantitative PCR (similar to commercial “Cells-to-Ct”-style kits). This procedure (detailed below) enables rapid RNA extraction and qPCR/ddPCR readout from 96-well plates with minimal hands-on time.
Cells were first washed in 100 ul of chilled phosphate-buffered saline (PBS). Then, cells were incubated at room temperature for 8 minutes in 50 ul of Complete Lysis Buffer. The Complete Lysis Buffer consists of the Base Lysis Buffer with freshly added 100 ug/ml Proteinase K (Sigma P2308) and 300 U/mL DNase I (Sigma D2821). When adding DNase I, it is important to not vortex but mix only by gentle pipetting. The Base Lysis Buffer is made in RNAse-free water (ThermoFisher Scientific 10977015) with 10 mM Tris pH8 (Ambion AM9856), 0.5 mM MgCl2 (Sigma M1028), 0.44 mM CaCl2 (Sigma 21115), 10 uM DTT (Sigma 43816), 0.1% Triton X-114 (Calbiochem 648468), and 1.73 mN HCl (Sigma 318965) and should have a final pH of 7.8. The Base Lysis Buffer is stable at 4° C. for up to 6 months.
After the 8-minute incubation in Complete Lysis Buffer, 30 ul of the cell lysis was added to new PCR plates containing 3 ul of STOP buffer in each well to stop the lysis reaction. The STOP buffer is made in RNAse-free water with 1 mM Proteinase K inhibitor AAPF N-(Methoxysuccinyl)-Ala-Ala-Pro-Phe-chloromethyl ketone (SEQ ID NO: 174) (Millipore 539470), 90 mM EDTA (ThermoFisher Scientific 15575020), and 113 uM DTT (Sigma 43816). The final pH of the STOP buffer should be 8, adjusted appropriately with HCl and KOH. The STOP buffer is stable for up to 6 months at 20° C. The lysis reaction was mixed with the STOP buffer by pipetting up and down 5 times. Applicants then incubated the lysis and STOP buffer for at least 2 minutes but not more than 20 minutes. (Extra stopped lysis can be stored at −80° C. for up to 5 months.)
Applicants transferred 5 ul of the stopped lysis to new PCR plates with 20 ul of RT master mix. The RT master mix is from the RevertAid Reverse Transcriptase kit (ThermoFisher Scientific K1691) and is as described in the manufacturer's protocol but with an added oligo-dT primer. […]

[2] = system: YY1; assay: ChIP-ddPCR for YY1; type: cell-based, human; conditions: ChIP-ddPCR around cut site vs non-targeting sgRNA
Experimental: Chromatin Immunoprecipitation (ChIP) for Histone Modifications and Transcription Factors
After 7 days of puromycin selection, A375 cells transduced with individual lentiCRISPRv2 sgRNAs were plated in T-225 flasks and grown to 70-90% confluence (6 days). At this point, chromatin fixation was initiated by adding formaldehyde directly to the growth media (final concentration 1%) and incubating at 37° C. for 10 minutes. The entire two-day ChIP procedure was performed using the Magna ChIP HiSens Chromatin Immunoprecipitation Kit (Millipore 1710460), as specified in the manufacturer's protocol. […]
Using BatchPrimer3, Applicants designed primers centered on the sgRNA target site with a target amplicon size of 80-120 bp (see table S4 for ChIP-ddPCR primers). Droplet digital PCR (ddPCR) reactions using EvaGreen (BioRad 1864034) were used to quantify changes between input, histone/TF ChIP, and IgG ChIP samples for A375 cells transduced with specific sgRNAs and untransduced A375 cells. […] Applicants calculated the percent change in ChIP signal after genome editing by normalizing each ChIP sample to its corresponding input sample and then comparing the normalized ChIP between A375s transduced with specific sgRNAs and untransduced (control) A375 cells.

[3] = system: human BCL11A erythroid enhancer; assay: Tiled pooled CRISPR-Cas9 screen for in situ functional mapping of the human BCL11A erythroid enhancer (HbF-high/HbF-low sort, sgRNA deep sequencing); type: cell-based; conditions: for Enrichment Score: HbF enrichment, human library NGG and NGG RC sgRNAs filtered for enrichment score >0.259; for Dropout Score: human library sgRNAs that produced HbF enrichment over 0.259
Outline: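 HUDEP-2 cells stably expressing Cas9 transduced at low multiplicity with tiled sgRNA library covering +55/+58/+62 DHS, selected with blasticidin/puromycin, expanded one week then differentiated one week. Top and bottom 10% HbF-stained cells FACS-sorted; sgRNA representation determined by deep sequencing of genomic DNA.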

5′-UTR sg1: validation sgRNA AGGAGGAGGAGGACGACGTT, SEQ ID NO 457, 5′ UTR (expressed or natural sequence)
CUL3 expression [1]: significantly decrease | decrease of YY1 binding [2]: 26%

BCL_01834_H_D62 (guide TATCAGAAGGGAACTGTTTGNGGRC; listed as DNA, chemistry not given here)
Enrichment Score [3]: 0.4029 | Dropout Score [3]: 0.02327

BCL_01989_H_exon2 (guide CTGCTATGTGTTCCTGTTTGNGGRC; listed as DNA, chemistry not given here)
Enrichment Score [3]: 0.6201 | Dropout Score [3]: 0.0332

BCL_01990_H_exon2 (guide GATAAACAATCGTCATCCTCNGGRC; listed as DNA, chemistry not given here)
Enrichment Score [3]: 0.8422 | Dropout Score [3]: −0.6128

BCL_01991_H_exon2 (guide CGTCATCCTCTGGCGTGACCNGGRC; listed as DNA, chemistry not given here)
Enrichment Score [3]: 0.8523 | Dropout Score [3]: −0.7166

BCL_01992_H_exon2 (guide GACCTGGATGCCAACCTCCANGGRC; listed as DNA, chemistry not given here)
Enrichment Score [3]: 1.234 | Dropout Score [3]: −0.6955

BCL_01993_H_exon2 (guide ACCTGGATGCCAACCTCCACNGGRC; listed as DNA, chemistry not given here)
Enrichment Score [3]: 1.974 | Dropout Score [3]: −1.736

BCL_01994_H_exon2 (guide GATGCCAACCTCCACGGGATNGGRC; listed as DNA, chemistry not given here)
Enrichment Score [3]: 1.11 | Dropout Score [3]: −0.9904

BCL_01998_H_exon2 (guide TTTCATCTCGATTGGTGAAGNGGRC; listed as DNA, chemistry not given here)
Enrichment Score [3]: 0.3489 | Dropout Score [3]: −0.1426

BCL_01999_H_exon2 (guide ATCTCGATTGGTGAAGGGGANGGRC; listed as DNA, chemistry not given here)
Enrichment Score [3]: 0.6204 | Dropout Score [3]: −0.7601

BCL_02000_H_exon2 (guide TCGATTGGTGAAGGGGAAGGNGGRC; listed as DNA, chemistry not given here)
Enrichment Score [3]: 0.4624 | Dropout Score [3]: −1.365

BCL_02001_H_exon2 (guide CCACAGCTTTTTCTAAGCAGNGGRC; listed as DNA, chemistry not given here)
Enrichment Score [3]: 0.4913 | Dropout Score [3]: −0.2495

BCL_02002_H_exon2 (guide AAAATAAGAATGTCCCCCAANGGRC; listed as DNA, chemistry not given here)
Enrichment Score [3]: 0.505 | Dropout Score [3]: −0.4259

BCL_02003_H_exon2 (guide AAATAAGAATGTCCCCCAATNGGRC; listed as DNA, chemistry not given here)
Enrichment Score [3]: 1.085 | Dropout Score [3]: −0.09695

BCL_02004_H_exon2 (guide CCCCCAATGGGAAGTTCATCNGGRC; listed as DNA, chemistry not given here)
Enrichment Score [3]: 0.4685 | Dropout Score [3]: −0.1189

BCL_02005_H_exon2 (guide GTTCATCTGGCACTGCCCACNGGRC; listed as DNA, chemistry not given here)
Enrichment Score [3]: 3.202 | Dropout Score [3]: −1.837

BCL_02006_H_exon2 (guide TCTGGCACTGCCCACAGGTGNGGRC; listed as DNA, chemistry not given here)
Enrichment Score [3]: 1.489 | Dropout Score [3]: −2.029

BCL_02007_H_exon2 (guide GGCACTGCCCACAGGTGAGGNGGRC; listed as DNA, chemistry not given here)
Enrichment Score [3]: 3.351 | Dropout Score [3]: −1.662

BCL_02008_H_exon2 (guide AGGAGGTCATGATCCCCTTCNGGRC; listed as DNA, chemistry not given here)
Enrichment Score [3]: 0.3495 | Dropout Score [3]: −0.4482

BCL_02009_H_exon2 (guide TCCCCTTCTGGAGCTCCCAANGGRC; listed as DNA, chemistry not given here)
Enrichment Score [3]: 2.108 | Dropout Score [3]: −1.693

BCL_02010_H_exon2 (guide CCCCTTCTGGAGCTCCCAACNGGRC; listed as DNA, chemistry not given here)
Enrichment Score [3]: 0.5003 | Dropout Score [3]: −0.1463

BCL_02011_H_exon2 (guide CTGGAGCTCCCAACGGGCCGNGGRC; listed as DNA, chemistry not given here)
Enrichment Score [3]: 0.6044 | Dropout Score [3]: 0.7912

BCL_02014_H_exon2 (guide TCTGTAAGAATGGCTTCAAGNGGRC; listed as DNA, chemistry not given here)
Enrichment Score [3]: 0.9901 | Dropout Score [3]: −0.7711

BCL_02015_H_exon2 (guide AAGAATGGCTTCAAGAGGCT; chemistry not given here)
Enrichment Score [3]: 1.064 | Dropout Score [3]: −1.349
